{"source": "patent US12605459B2", "about": "“Protein-drug conjugates comprising camptothecin analogs and methods of use thereof” (priority 2020, dated 2026)", "key": {"HCT-15": {"system": "HCT-15", "test": "cells", "type": "cell-based"}, "C4-2/STEAP2 KO cells": {"system": "C4-2/STEAP2 KO cells", "test": "In vitro cytotoxicity assay in tumor lines (CellTiter-Glo 2.0), C4-2/STEAP2 KO", "type": "cell-based, human", "procedure": "The last well in each dilution series (untreated wells) served as blank controls containing only the media (ADCs) or media plus 0.2% DMSO (payloads) and was plotted as a continuation of the 3-fold serial dilution. […] Relative light units (RLUs) were measured on an Envision luminometer (PerkinElmer), and cell viability was expressed as a percentage of the untreated (100% viable) cells. IC50 values were determined using a four-parameter logistic equation over a 10-point dose response curve (GraphPad Prism)."}, "C4-2 cells": {"system": "C4-2 cells", "test": "In vitro cytotoxicity assay in tumor lines (CellTiter-Glo 2.0), C4-2", "type": "cell-based, human", "procedure": "(§1) To test the ability of anti-HER2 or anti-STEAP2 antibody drug conjugates (ADCs) of the present disclosure to kill human cell lines, an in vitro cytotoxicity assay was performed. In vitro cytotoxicity of the ADCs, isotype control ADCs, and reference free payloads were evaluated using the CellTiter-Glo 2.0 Assay Kit (Promega, Cat #g9243), in which the quantity of ATP present is used to determine the number of viable cells in culture.\n(§2) For the assay, Calu-3, SK-BR-3, NCI-H1975, C42, or C42/STEAP2 KO (knockout) cells were seeded at 1000 cells/well in poly-D-lysine coated white 96 well Biocoat plates (Corning #356693) in complete growth medium and grown overnight at 37° C. in 5% CO2. Three-fold serial dilutions of anti-HER2 ADCs or isotype control ADCs were prepared in dilution media (Optimem+0.1% BSA) and added to cells at final concentrations ranging from 100 nM to 0.015 nM (concentrations were corrected for the DAR (drug antibody ratio) and dosed based on the effective payload concentration). Three-fold serial dilutions of free payloads were prepared in 100% DMSO, transferred to fresh dilution media, and then added to the cells at a final constant DMSO concentration of 0.2% and final payload concentrations ranging from 100 nM to 0.015 nM. The last well in each dilution series (untreated wells) served as blank controls containing only the media (ADCs) or media plus 0.2% DMSO (payloads) and was plotted as a continuation of the 3-fold serial dilution. Six days later, 100 μL of CellTiter glo 2.0 was added to each well, plates were mixed for 2 minutes on an orbital shaker, and plates were incubated at room temperature for 10 minutes. Relative light units (RLUs) were measured on an Envision luminometer (PerkinElmer), and cell viability was expressed as a percentage of the untreated (100% viable) cells. IC50 values were determined using a four-parameter logistic equation over a 10-point dose response curve (GraphPad Prism). The maximum % kill was also determined for each test article as follows: 100—minimum percent viability."}, "[1]": {"system": "SK-BR-3, Calu-3 and NCI-H1975 cells", "test": "In vitro cytotoxicity assay, statements pooled over several tested lines (SK-BR-3, Calu-3, NCI-H1975)", "type": "cell-based, human", "conditions": "all tested cells; units printed with the values (pM, nM)", "procedure": "as §1\nFor the assay, Calu-3, SK-BR-3, NCI-H1975, C42, or C42/STEAP2 KO (knockout) cells were seeded at 1000 cells/well in poly-D-lysine coated white 96 well Biocoat plates (Corning #356693) in complete growth medium and grown overnight at 37° C. in 5% CO2. Three-fold serial dilutions of anti-HER2 ADCs or isotype control ADCs were prepared in dilution media (Optimem+0.1% BSA) and added to cells at final concentrations ranging from 100 nM to 0.015 nM (concentrations were corrected for the DAR (drug antibody ratio) and dosed based on the effective payload concentration). […] Relative light units (RLUs) were measured on an Envision luminometer (PerkinElmer), and cell viability was expressed as a percentage of the untreated (100% viable) cells. IC50 values were determined using a four-parameter logistic equation over a 10-point dose response curve (GraphPad Prism). The maximum % kill was also determined for each test article as follows: 100—minimum percent viability."}, "Calu-3 cells": {"system": "Calu-3 cells", "type": "cell-based, human", "conditions": "Table 27 (second experiment), six days", "procedure": "as §1, §2"}, "SK-BR-3 cells": {"system": "SK-BR-3 cells", "type": "cell-based, human", "conditions": "six days; for IC50: concentrations corrected for DAR", "procedure": "as §1, §2"}, "NCI-H1975 cells": {"system": "NCI-H1975 cells", "test": "In vitro cytotoxicity assay in tumor lines (CellTiter-Glo 2.0), NCI-H1975", "type": "cell-based, human", "conditions": "six days; for IC50: concentrations corrected for DAR", "procedure": "as §1, §2"}, "[2]": {"conditions": "Homo sapiens, HCT-15, read-out: IC50 (nM) +v"}, "[3]": {"conditions": "Homo sapiens, HCT-15, read-out: IC50 (nM) −v"}}, "note": "Where two headings read alike, the source gives them in different places. Non-standard residues stand in square brackets, D forms with d. Residues, ends and D or L forms follow the SMILES beside them. *: point of attachment. Dolaproine = CO[C@@H]([C@@H]1CCCN1)[C@@H](C)C(=O)O; Dil = CC[C@H](C)[C@H](NC)[C@@H](CC(=O)O)OC; X1 = C[C@@H](N*)[C@@H](O)c1ccccc1; NMeV = CN[C@H](C(=O)O)C(C)C"}
{"compound": "CC[C@@]1(O)C(=O)OCc2c1cc1n(c2=O)Cc2c-1nc1cc(F)c(C)c3c1c2[C@@H](NC(=O)COCNC(=O)CN)CC3", "note": "[P3]", "values": [{"measurement": "Ratio to MMAE +v", "setting": "HCT-15; HCT-15, with verapamil", "value": 23.426, "unit": "x"}, {"measurement": "Ratio to MMAE −v", "setting": "HCT-15; HCT-15, without verapamil", "value": 3.011, "unit": "x"}, {"measurement": "IC50", "setting": "HCT-15; [2]", "value": 22.2, "unit": "nM"}, {"measurement": "IC50", "setting": "HCT-15; [3]", "value": 44.9, "unit": "nM"}]}
{"compound": "CC[C@@]1(O)C(=O)OCc2c1cc1n(c2=O)Cc2c-1nc1cc(F)c(C)c3c1c2[C@@H](NC(=O)CO)CC3", "note": "[P2, Dxd]", "values": [{"measurement": "IC50", "setting": "HCT-15; [2]", "value": 2.65, "unit": "nM"}, {"measurement": "IC50", "setting": "HCT-15; [3]", "value": 7, "unit": "nM"}]}
{"compound": "CC[C@@]1(O)C(=O)OCc2c1cc1n(c2=O)Cc2c-1nc1cc(F)c(C)c3c1c2[C@@H](NC(=O)CO)CC3", "note": "[Dxd]", "values": [{"measurement": "IC50", "setting": "C4-2/STEAP2 KO cells; C4-2/STEAP2 KO cells, 6 days", "value": 3.43, "unit": "nM"}, {"measurement": "C4-2/STEAP2 KO Max % Kill", "setting": "C4-2/STEAP2 KO cells; Table 28, six days", "value": 88.9, "unit": "%"}, {"measurement": "IC50", "setting": "C4-2 cells; C4-2 cells, 6 days", "value": 2.54, "unit": "nM"}, {"measurement": "maximum % kill", "setting": "C4-2 cells; C4-2 cells, 6 days", "value": 81.7, "unit": "%"}, {"measurement": "C4-2 Max % Kill", "setting": "C4-2 cells; Table 28, six days", "value": 81.7, "unit": "%"}, {"measurement": "IC50", "setting": "[1]", "value": "787 to 11800", "unit": "pM"}, {"measurement": "Calu-3 Max % Kill", "setting": "Calu-3 cells", "value": 96.3, "unit": "%"}, {"measurement": "IC50", "setting": "Calu-3 cells; concentrations corrected for DAR", "value": 2.14, "unit": "nM"}, {"measurement": "SK-BR-3 Max % Kill", "setting": "SK-BR-3 cells; Table 26 (first experiment)", "value": 97.1, "unit": "%"}, {"measurement": "IC50", "setting": "SK-BR-3 cells; Table 26 (first experiment)", "value": 0.787, "unit": "nM"}, {"measurement": "SK-BR-3 Max % Kill", "setting": "SK-BR-3 cells; Table 27 (second experiment)", "value": 98.2, "unit": "%"}, {"measurement": "IC50", "setting": "SK-BR-3 cells; Table 27 (second experiment)", "value": 1.56, "unit": "nM"}, {"measurement": "NCI-H1975 Max % Kill", "setting": "NCI-H1975 cells; Table 26 (first experiment)", "value": 95.9, "unit": "%"}, {"measurement": "IC50", "setting": "NCI-H1975 cells; Table 26 (first experiment)", "value": 8.91, "unit": "nM"}, {"measurement": "NCI-H1975 Max % Kill", "setting": "NCI-H1975 cells; Table 27 (second experiment)", "value": 96.1, "unit": "%"}, {"measurement": "IC50", "setting": "NCI-H1975 cells; Table 27 (second experiment)", "value": 11.8, "unit": "nM"}]}
{"compound": "CC[C@H](C)[C@@H]([C@@H](CC(=O)N1CCC[C@H]1[C@H](OC)[C@@H](C)C(=O)N[C@H](C)[C@@H](O)c1ccccc1)OC)N(C)C(=O)[C@@H](NC(=O)[C@@H](NC)C(C)C)C(C)C", "note": "[MMAE] (H-[NMeV]V[Dil][Dolaproine]-X1)", "values": [{"measurement": "Ratio to MMAE +v", "setting": "HCT-15; HCT-15, with verapamil", "value": 1, "unit": "x"}, {"measurement": "IC50", "setting": "HCT-15; HCT-15, with verapamil, read-out: IC50 (nM) +v", "value": 0.946, "unit": "nM"}, {"measurement": "Ratio to MMAE −v", "setting": "HCT-15; HCT-15, without verapamil", "value": 1, "unit": "x"}, {"measurement": "IC50", "setting": "HCT-15; HCT-15, without verapamil, read-out: IC50 (nM) −v", "value": 14.8, "unit": "nM"}]}
{"compound": "CC[C@@]1(O)C(=O)OCc2c1cc1n(c2=O)Cc2c-1nc1cc(F)c(C)c3c1c2[C@@H](N)CC3", "note": "[P1, Exatecan]", "values": [{"measurement": "Ratio to MMAE +v", "setting": "HCT-15; HCT-15, with verapamil", "value": 1.833, "unit": "x"}, {"measurement": "Ratio to MMAE −v", "setting": "HCT-15; HCT-15, without verapamil", "value": 0.087, "unit": "x"}, {"measurement": "IC50", "setting": "HCT-15; Homo sapiens, HCT-15, with verapamil, read-out: IC50 (nM) +v", "value": 1.73, "unit": "nM"}, {"measurement": "IC50", "setting": "HCT-15; Homo sapiens, HCT-15, without verapamil, read-out: IC50 (nM) −v", "value": 1.29, "unit": "nM"}]}
